Measurements from the NIST ThermoML archive (doi:10.1016/j.fluid.2012.03.025).
± gives the expanded uncertainty stated by the source.

Legend:
[1] = refractive index (Na D-line) (dimensionless); xn = mol fraction of the nth substance listed; details: 298.15 K, 101 kPa, Liquid, Standard Abbe refractometry
[2] = xn = mol fraction of the nth substance listed; details: 298.15 K, 101 kPa, Liquid, Vibrating tube method
[3] = Crystal

CCCCCCC(C)O (stereo unspecified) [2-octanol] + CCCCCCCCCCCCN(CCCCCCCCCCCC)CCCCCCCCCCCC
x2 = 0
Details | mass density [kg/m3] | refractive index
[1] | – | 1.4244 ± 0.0004
[2] | 816.49 ± 0.11 | –

CCCCCCC(C)O (stereo unspecified) [2-octanol] + CCCCCCCCCCO
Details | mass density, [2] [kg/m3] | refractive index, [1]
x1 = 0.0505 | 826.1 ± 0.1 | 1.4349 ± 0.0004
x1 = 0.1001 | 825.65 ± 0.1 | 1.4344 ± 0.0004
x1 = 0.1998 | 824.82 ± 0.1 | 1.4334 ± 0.0004
x1 = 0.2999 | 824.02 ± 0.1 | 1.4325 ± 0.0004
x1 = 0.4006 | 823.14 ± 0.1 | 1.4315 ± 0.0004
x1 = 0.5001 | 822.18 ± 0.1 | 1.4304 ± 0.0004
x1 = 0.6 | 821.17 ± 0.1 | 1.4293 ± 0.0004
x1 = 0.6999 | 820.13 ± 0.1 | 1.4281 ± 0.0004
x1 = 0.7995 | 819.04 ± 0.11 | 1.427 ± 0.0004
x1 = 0.8998 | 817.86 ± 0.11 | 1.4257 ± 0.0004
x1 = 0.95 | 817.21 ± 0.11 | 1.4251 ± 0.0004
x1 = 1 | 816.49 ± 0.11 | 1.4244 ± 0.0004

CCCCCCC(C)O (stereo unspecified) [2-octanol] + CCCCCCCCO
Details | mass density, [2] [kg/m3] | refractive index, [1]
x2 = 0 | 816.49 ± 0.11 | 1.4243 ± 0.0004
x2 = 0.0403 | 816.8 ± 0.11 | 1.4246 ± 0.0004
x2 = 0.0812 | 817.11 ± 0.11 | 1.4247 ± 0.0004
x2 = 0.1657 | 817.65 ± 0.11 | 1.425 ± 0.0004
x2 = 0.2539 | 818.13 ± 0.11 | 1.4253 ± 0.0004
x2 = 0.3458 | 818.63 ± 0.11 | 1.4255 ± 0.0004
x2 = 0.4421 | 819.16 ± 0.11 | 1.4259 ± 0.0004
x2 = 0.5431 | 819.71 ± 0.1 | 1.4262 ± 0.0004
x2 = 0.649 | 820.28 ± 0.1 | 1.4265 ± 0.0004
x2 = 0.7603 | 820.85 ± 0.1 | 1.4268 ± 0.0004
x2 = 0.8771 | 821.36 ± 0.1 | 1.4272 ± 0.0004
x2 = 0.9375 | 821.61 ± 0.1 | 1.4273 ± 0.0004

CCCCCCCCCCO [decan-1-ol] + CCCCCCC(C)O
x2 = 0
Details | mass density [kg/m3] | refractive index
[1] | – | 1.4354 ± 0.0004
[2] | 826.59 ± 0.1 | –

CCCCCCCCCCO [decan-1-ol] + CCCCCCCCCCCCN(CCCCCCCCCCCC)CCCCCCCCCCCC
x2 = 0
Details | mass density [kg/m3] | refractive index
[1] | – | 1.4354 ± 0.0004
[2] | 826.59 ± 0.1 | –

CCCCCCCCO [octan-1-ol] + CCCCCCC(C)O
x1 = 1
Details | mass density [kg/m3] | refractive index
[1] | – | 1.4275 ± 0.0004
[2] | 821.76 ± 0.1 | –

CCCCCCCCO [octan-1-ol] + CCCCCCCCCCCCN(CCCCCCCCCCCC)CCCCCCCCCCCC
x2 = 0
Details | mass density [kg/m3] | refractive index
[1] | – | 1.4275 ± 0.0004
[2] | 821.76 ± 0.1 | –

CCCCCCCCCCCCN(CCCCCCCCCCCC)CCCCCCCCCCCC [tridodecylamine]
Details | Normal melting temperature [°C]
[3] | 16.1 ± 0.4

CCCCCCCCCCCCN(CCCCCCCCCCCC)CCCCCCCCCCCC [tridodecylamine] + CCCCCCC(C)O
Details | mass density, [2] [kg/m3] | refractive index, [1]
x1 = 0.0526 | 816.69 ± 0.11 | 1.4296 ± 0.0004
x1 = 0.1042 | 816.97 ± 0.11 | 1.4336 ± 0.0004
x1 = 0.2072 | 817.55 ± 0.11 | 1.4396 ± 0.0004
x1 = 0.31 | 818.03 ± 0.11 | 1.4436 ± 0.0004
x1 = 0.4111 | 818.41 ± 0.11 | 1.4465 ± 0.0004
x1 = 0.5114 | 818.68 ± 0.11 | 1.4486 ± 0.0004
x1 = 0.6109 | 818.88 ± 0.11 | 1.4503 ± 0.0004
x1 = 0.7083 | 819.04 ± 0.11 | 1.4516 ± 0.0004
x1 = 0.805 | 819.15 ± 0.11 | 1.4528 ± 0.0004
x1 = 0.9037 | 819.22 ± 0.11 | 1.4537 ± 0.0004
x1 = 0.9524 | 819.24 ± 0.11 | 1.4541 ± 0.0004
x1 = 1 | 819.23 ± 0.11 | 1.4546 ± 0.0004

CCCCCCCCCCCCN(CCCCCCCCCCCC)CCCCCCCCCCCC [tridodecylamine] + CCCCCCCCCCO
Details | mass density, [2] [kg/m3] | refractive index, [1]
x1 = 0.0522 | 825.92 ± 0.1 | 1.4385 ± 0.0004
x1 = 0.104 | 825.24 ± 0.1 | 1.4409 ± 0.0004
x1 = 0.2071 | 824.17 ± 0.1 | 1.4448 ± 0.0004
x1 = 0.3096 | 823.37 ± 0.1 | 1.447 ± 0.0004
x1 = 0.4117 | 822.57 ± 0.1 | 1.4493 ± 0.0004
x1 = 0.5112 | 821.93 ± 0.1 | 1.4506 ± 0.0004
x1 = 0.6117 | 821.35 ± 0.1 | 1.4519 ± 0.0004
x1 = 0.7097 | 820.82 ± 0.1 | 1.4528 ± 0.0004
x1 = 0.8078 | 820.35 ± 0.1 | 1.4535 ± 0.0004
x1 = 0.9041 | 819.86 ± 0.1 | 1.4541 ± 0.0004
x1 = 0.9534 | 819.53 ± 0.1 | 1.4544 ± 0.0004
x1 = 1 | 819.23 ± 0.11 | 1.4546 ± 0.0004

CCCCCCCCCCCCN(CCCCCCCCCCCC)CCCCCCCCCCCC [tridodecylamine] + CCCCCCCCO
Details | mass density, [2] [kg/m3] | refractive index, [1]
x1 = 0.0652 | 821.91 ± 0.1 | 1.4337 ± 0.0004
x1 = 0.1282 | 821.75 ± 0.1 | 1.438 ± 0.0004
x1 = 0.2477 | 821.37 ± 0.1 | 1.4434 ± 0.0004
x1 = 0.3616 | 820.95 ± 0.1 | 1.4468 ± 0.0004
x1 = 0.469 | 820.67 ± 0.1 | 1.4491 ± 0.0004
x1 = 0.5695 | 820.41 ± 0.1 | 1.4506 ± 0.0004
x1 = 0.6684 | 820.15 ± 0.1 | 1.4519 ± 0.0004
x1 = 0.7531 | 819.94 ± 0.1 | 1.4528 ± 0.0004
x1 = 0.8438 | 819.65 ± 0.1 | 1.4535 ± 0.0004
x1 = 0.9238 | 819.4 ± 0.1 | 1.4541 ± 0.0004
x1 = 0.9643 | 819.29 ± 0.1 | 1.4544 ± 0.0004
x1 = 1 | 819.23 ± 0.11 | 1.4546 ± 0.0004
